# According to patent US10689381B2 (priority 2017, dated 2020):
# Like-named read-outs stand apart in the source and are kept apart here.
# Assays:
# [1] = system: A549; assay: cells; type: cell-based, human; conditions: read-out: IC50 A549
# Text: (§1) 2001, 98:11737; Kavallaris et al., Brit. J. Cancer. 1999, 80:1020; and Kavallaris et al., J. Clin. Invest. 1997, 100:1282]. As a result, the comparison of cell growth inhibition of candidate drugs against A549 vs A549-T24 has been used to characterize potential resistance due to increased expression of class III β-tubulin [Goncalves et al., Proc. Natl. Acad. Sci. USA. 2001, 98:11737; Kavallaris et al., Brit. J. Cancer. 1999, 80:1020; and Kavallaris et al., J. Clin. Invest. 1997, 100:1282].
# [2] = system: A549-T24; assay: cells; type: cell-based, human
# Text: as §1
# [3] = target: Pgp (Homo sapiens, UniProt P08183); assay: Drug-stimulated Pgp ATPase activity in membranes (MDR1 PREDEASY ATPase kit)
# Chain of Pgp (P08183 whole entry): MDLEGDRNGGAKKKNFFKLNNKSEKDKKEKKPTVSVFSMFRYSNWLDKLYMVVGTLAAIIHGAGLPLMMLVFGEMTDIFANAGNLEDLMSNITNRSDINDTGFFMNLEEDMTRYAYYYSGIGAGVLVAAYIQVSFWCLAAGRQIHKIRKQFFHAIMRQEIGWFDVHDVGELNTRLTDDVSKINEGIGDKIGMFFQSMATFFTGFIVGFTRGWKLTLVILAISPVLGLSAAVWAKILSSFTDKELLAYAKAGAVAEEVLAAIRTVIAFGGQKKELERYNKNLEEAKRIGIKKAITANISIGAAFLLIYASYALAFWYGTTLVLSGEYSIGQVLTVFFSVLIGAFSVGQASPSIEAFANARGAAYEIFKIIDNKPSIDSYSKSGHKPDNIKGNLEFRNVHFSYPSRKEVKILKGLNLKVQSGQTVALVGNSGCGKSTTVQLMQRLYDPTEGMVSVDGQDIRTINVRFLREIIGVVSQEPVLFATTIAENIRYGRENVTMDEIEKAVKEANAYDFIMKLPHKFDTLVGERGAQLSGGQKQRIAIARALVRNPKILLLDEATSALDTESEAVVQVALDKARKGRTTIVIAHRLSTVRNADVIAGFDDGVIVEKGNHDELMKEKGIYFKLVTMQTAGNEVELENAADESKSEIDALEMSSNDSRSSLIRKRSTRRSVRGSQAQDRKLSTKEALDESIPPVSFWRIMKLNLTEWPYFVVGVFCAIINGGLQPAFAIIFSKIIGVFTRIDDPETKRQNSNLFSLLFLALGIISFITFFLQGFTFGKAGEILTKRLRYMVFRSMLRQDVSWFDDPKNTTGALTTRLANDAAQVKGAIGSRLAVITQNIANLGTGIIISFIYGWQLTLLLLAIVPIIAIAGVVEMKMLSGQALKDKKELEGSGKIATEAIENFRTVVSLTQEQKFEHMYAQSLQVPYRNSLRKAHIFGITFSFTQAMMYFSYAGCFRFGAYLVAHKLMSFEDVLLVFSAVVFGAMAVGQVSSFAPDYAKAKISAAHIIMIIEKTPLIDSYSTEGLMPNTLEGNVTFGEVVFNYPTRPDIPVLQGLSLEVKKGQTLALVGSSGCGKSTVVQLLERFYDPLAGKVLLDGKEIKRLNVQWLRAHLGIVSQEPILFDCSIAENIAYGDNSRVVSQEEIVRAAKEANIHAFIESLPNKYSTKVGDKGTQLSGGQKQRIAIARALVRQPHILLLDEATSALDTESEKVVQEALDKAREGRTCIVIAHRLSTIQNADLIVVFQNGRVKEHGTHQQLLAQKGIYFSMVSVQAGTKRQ
# [4] = system: L1210; assay: cells; type: cell-based, mouse
# Method in brief: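 Cells seeded at 30,000 cells/mL in DMEM with 10% FBS, then exposed for 72 h to compound at six concentrations spanning 0–1000 nM or 0–10000 nM, in duplicate. Final incubation at 37 °C lasted 5 min for L1210 and 15 min for HCT116.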
# [5] = system: HCT116/VM46; assay: cells; type: cell-based, human
# Experimental: Compounds were tested for their cell growth inhibition of L1210 (ATCC no. CCL-219, mouse lymphocytic leukemia), HCT116 (ATCC no. CCL-247, human colorectal carcinoma), and HCT116/VM46 (a vinblastine-resistant strain of HCT116) cells in culture. A population of cells (>1×10^6 cells/mL as determined with a hemocytometer) was diluted with Dulbecco's Modified Eagle Medium (DMEM, Gibco) containing 10% fetal bovine serum (FBS, Gibco) to give a final concentration of 30,000 cells/mL. To each well of a 96-well plate (Corning® Costar®) was added 100 μL of the cell media solution with a multichannel pipet. The cultures were incubated at 37° C. in an atmosphere of 5% CO2 and 95% humidified air for 24 hours.
# The test compounds were then added to the plate as follows: test compounds were diluted in DMSO to a concentration of 1 mM. 10-Fold serial dilutions in DMSO were next performed on a separate 96-well plate. Fresh culture media (100 μL) was added to each well of cells resulting in 200 μL of medium per well followed by 2 μL of each test agent. Compounds were tested in duplicate (n=2-8 times) at six concentrations between 0-1000 nM or 0-10000 nM. Following the addition of compound, cultures were incubated for an additional 72 hours.
# The plates were incubated at 37° C. for 5 minutes (L1210) or 15 min (HCT116 and HCT116/VM46). After the given incubation time, 50 μL of 0.1 N NaOH was added to each well and the absorption at 405 nm was determined using a 96 well plate reader. […]
# [6] = system: Tubulin
# Experimental: Control studies were performed with BODIPY-VBL in the absence of a competitive ligand (control 1, maximum FI enhancement) and in the absence of tubulin (control 2, no FI enhancement). Percent (%) BODIPY-VBL displacement was calculated by the formula: (control 1 FI−experiment FI)/(Control 1 FI−Control 2 FI)×100%. Reported values are the average of 5 measurements±SD.
# [7] = system: Caco-2 cells
smiles,measurement,setting,value
"CC[C@]1(O)C[C@@H]2CN(CCc3c([nH]c4ccccc34)[C@@](C(=O)OC)(c3cc4c(cc3OC)N(C)[C@H]3[C@@](O)(C(=O)OC)[C@H](OC(C)=O)[C@]5(CC)C=CCN6CC[C@]43[C@@H]65)C2)C1 [Vinblastine (1), Vinblastine, reference compound]",IC50,[1],0.0077 µM
same,IC50,[2],0.0067 µM
same,% Pgp ATPase activity,[3],87%
same,IC50,[4],0.006 µM
same,IC50,[4]; Table 1,0.006 µM
same,IC50,[4]; Table 2,0.006 µM
same,IC50,[4]; Table 3,0.006 µM
same,IC50,[4]; Table 4,0.006 µM
same,IC50,[4]; Table 5,0.006 µM
same,IC50,[4]; Table 6,0.006 µM
same,IC50,"[4]; Table 7, C20′ sulfonamides",0.006 µM
same,IC50,"[4]; Table 8, 10′-F compounds",0.006 µM
same,"MIC, HCT116/VM46 cells",[5],0.6 µM
same,differential in activity between sensitive and resistant HCT116 cell lines,[5],88 fold
same,IC50,"[5]; Table 1, read-out: IC50 HCT116/VM46",600 nM
same,IC50,"[5]; Table 2, read-out: IC50 HCT116/VM46",600 nM
same,IC50,"[5]; Table 3, read-out: IC50 HCT116/VM46",600 nM
same,IC50,"[5]; Table 4, read-out: IC50 HCT116/VM46",600 nM
same,IC50,"[5]; Table 5, read-out: IC50 HCT116/VM46",600 nM
same,IC50,"[5]; Table 6, read-out: IC50 HCT116/VM46",600 nM
same,IC50,"[5]; Table 7, C20′ sulfonamides, read-out: IC50 HCT116/VM46",600 nM
same,IC50,"[5]; Table 8, 10′-F compounds, read-out: IC50 HCT116/VM46",600 nM
same,IC50,"[5]; Table 10, read-out: IC50 (nM), HCT116/VM46",600 nM
same,IC50,[5]; read-out: IC50 HCT116/VM46,600 nM
same,IC50,"[5]; table in Background, C20′ substituent X, read-out: IC50, HCT116/VM46",600 nM
same,percent (%) displacement of tubulin-bound BODIPY-vinblastine,"[6]; FIG. 2, competitive ligand 18 μM",50%
same,% displacement,"[6]; Table 9, displacement of tubulin bound BODIPY-vinblastine",61 ± 13%
same,"Papp, B to A",[7],38.2 ± 2.0 x 10^−6 cm/s
